Values joined by “and” are separate entries in the source; they are usually repeats but may differ in a detail not shown here. Identical values can stand only once. Toxic doses and inconclusive results are not listed. The calls were made as follows: active = survival T/C of 150% or more; inactive = T/C below 125% in these data.
Tested on: CD2F1 mice, L1210 leukemia ip, survival T/C
Experiment: NCI In Vivo Anticancer Drug Screen. Data for tumor model L1210 Leukemia (intraperitoneal) in CD2F1 (CDF1) mice
Conditions: higher = longer survival
How it was run: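 Ratio T/C, where T is the treated-group value and C the vehicle-dosed control value, from mice implanted with a transplantable tumor.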

[1] = endpoint: mean survival time, dose: 100.0 mg/kg/injection, schedule: Q01DX009 (ip), vehicle: saline with Tween-80
[2] = endpoint: mean survival time, dose: 100.0 mg/kg/injection, schedule: Q04DX003 (ip), vehicle: saline with Tween-80
[3] = endpoint: mean survival time, dose: 200.0 mg/kg/injection, schedule: Q01DX009 (ip), vehicle: saline with Tween-80
[4] = endpoint: mean survival time, dose: 200.0 mg/kg/injection, schedule: Q04DX003 (ip), vehicle: saline with Tween-80
[5] = endpoint: mean survival time, dose: 400.0 mg/kg/injection, schedule: Q01DX009 (ip), vehicle: saline with Tween-80
[6] = endpoint: mean survival time, dose: 400.0 mg/kg/injection, schedule: Q04DX003 (ip), vehicle: saline with Tween-80
[7] = endpoint: mean survival time, dose: 75.0 mg/kg/injection, schedule: Q01DX001 (ip), vehicle: saline
[8] = endpoint: mean survival time, dose: 100.0 mg/kg/injection, schedule: Q04DX002 (ip), vehicle: saline with Tween-80
[9] = endpoint: mean survival time, dose: 200.0 mg/kg/injection, schedule: Q04DX002 (ip), vehicle: saline with Tween-80
[10] = endpoint: mean survival time, dose: 12.5 mg/kg/injection, schedule: Q01DX005 (ip), vehicle: water
[11] = endpoint: mean survival time, dose: 25.0 mg/kg/injection, schedule: Q01DX005 (ip), vehicle: water
[12] = endpoint: mean survival time, dose: 50.0 mg/kg/injection, schedule: Q01DX005 (ip), vehicle: water
[13] = endpoint: mean survival time, dose: 100.0 mg/kg/injection, schedule: Q01DX005 (ip), vehicle: water
[14] = endpoint: mean survival time, dose: 200.0 mg/kg/injection, schedule: Q01DX005 (ip), vehicle: water

Measured: T/C

NC(=O)c1c(F)cccc1Cl
inactive: [1] 102 % of control | [2] 101 % of control | [3] 105 % of control | [4] 98 % of control | [5] 102 % of control | [6] 106 % of control

CCO[Si](OCC)OCC
inactive: [7] 108 % of control

CCCCCCCCN(CCCCCCCC)CC(O)c1ccc2c(c1)Sc1ccccc1O2 (stereo not given)
inactive: [7] 93 % of control | endpoint: mean survival time, dose: 150.0 mg/kg/injection, schedule: Q01DX001 (ip), vehicle: saline 90 % of control

COc1ccc(OC)c(-c2csc(=O)s2)c1
inactive: endpoint: mean survival time, dose: 25.0 mg/kg/injection, schedule: Q04DX002 (ip), vehicle: Klucel (hydroxypropylcellulose) (HPC) 107 % of control | endpoint: mean survival time, dose: 50.0 mg/kg/injection, schedule: Q04DX002 (ip), vehicle: Klucel (hydroxypropylcellulose) (HPC) 96 % of control | endpoint: mean survival time, dose: 100.0 mg/kg/injection, schedule: Q04DX002 (ip), vehicle: Klucel (hydroxypropylcellulose) (HPC) 102 % of control | endpoint: mean survival time, dose: 200.0 mg/kg/injection, schedule: Q04DX002 (ip), vehicle: Klucel (hydroxypropylcellulose) (HPC) 102 % of control | endpoint: mean survival time, dose: 400.0 mg/kg/injection, schedule: Q04DX002 (ip), vehicle: Klucel (hydroxypropylcellulose) (HPC) 94 % of control

CS(=O)(=O)Oc1ccccc1OS(C)(=O)=O
inactive: endpoint: mean survival time, dose: 50.0 mg/kg/injection, schedule: Q04DX002 (ip), vehicle: saline with Tween-80 113 % of control | [8] 113 % of control | [9] 101 % of control

CC1(O)Nc2nc3nc[nH]c3c(=O)n2C1O (stereo not given)
inactive: [10] 94 % of control | [11] 90 % of control | [12] 100 % of control | [13] 94 % of control | [14] 93 % of control

CC1=C(c2ccccc2)OS(=O)(=O)NC1=O
inactive: endpoint: mean survival time, dose: 12.5 mg/kg/injection, schedule: Q01DX009 (ip), vehicle: water 93 % of control | endpoint: mean survival time, dose: 25.0 mg/kg/injection, schedule: Q01DX009 (ip), vehicle: water 91 % of control | endpoint: mean survival time, dose: 50.0 mg/kg/injection, schedule: Q01DX009 (ip), vehicle: water 93 % of control | endpoint: mean survival time, dose: 100.0 mg/kg/injection, schedule: Q01DX009 (ip), vehicle: water 93 % of control | endpoint: mean survival time, dose: 200.0 mg/kg/injection, schedule: Q01DX009 (ip), vehicle: water 88 % of control

CC(=O)OC1COC(n2cnc3c(N)ncnc32)C(OC(C)=O)C1OC(C)=O (stereo not given)
inactive: endpoint: mean survival time, dose: 100.0 mg/kg/injection, schedule: Q01DX001 (ip), vehicle: saline 108 % of control | endpoint: mean survival time, dose: 200.0 mg/kg/injection, schedule: Q01DX001 (ip), vehicle: saline 101 % of control | endpoint: mean survival time, dose: 400.0 mg/kg/injection, schedule: Q01DX001 (ip), vehicle: saline 90 % of control

O=C(O)C(O)C(O)C(O)CO (stereo not given)
inactive: endpoint: mean survival time, dose: 100.0 mg/kg/injection, schedule: Q04DX003 (ip), vehicle: saline 95 % of control | endpoint: mean survival time, dose: 200.0 mg/kg/injection, schedule: Q04DX003 (ip), vehicle: saline 105 % of control | endpoint: mean survival time, dose: 400.0 mg/kg/injection, schedule: Q04DX003 (ip), vehicle: saline 97 % of control

CSc1nc(=O)n(C2OC(CO)C(O)C2O)nc1SCc1ccccc1 (stereo not given)
inactive: endpoint: mean survival time, dose: 12.5 mg/kg/injection, schedule: Q01DX005 (ip), vehicle: distilled water + Tween-80 94 % of control | endpoint: mean survival time, dose: 25.0 mg/kg/injection, schedule: Q01DX005 (ip), vehicle: distilled water + Tween-80 94 % of control | endpoint: mean survival time, dose: 50.0 mg/kg/injection, schedule: Q01DX005 (ip), vehicle: distilled water + Tween-80 92 % of control

Cc1cc(N(CCI)CCI)ccc1N=Nc1ccccc1C(=O)O
inactive: endpoint: mean survival time, dose: 25.0 mg/kg/injection, schedule: Q01DX009 (ip), vehicle: Klucel (hydroxypropylcellulose) (HPC) 122 % of control | endpoint: mean survival time, dose: 50.0 mg/kg/injection, schedule: Q01DX009 (ip), vehicle: Klucel (hydroxypropylcellulose) (HPC) 122 % of control | endpoint: mean survival time, dose: 100.0 mg/kg/injection, schedule: Q01DX009 (ip), vehicle: Klucel (hydroxypropylcellulose) (HPC) 122 % of control

COC(=O)c1cc2ccccc2cc1OC
inactive: [1] 102 % of control | [2] 95 % of control | [3] 109 % of control | [4] 97 % of control | [5] 101 % of control | [6] 97 % of control

C=CCOC1C=CCCC1 (stereo not given)
inactive: endpoint: mean survival time, dose: 100.0 mg/kg/injection, schedule: Q04DX002 (ip), vehicle: saline 100 % of control | endpoint: mean survival time, dose: 200.0 mg/kg/injection, schedule: Q04DX002 (ip), vehicle: saline 100 % of control | endpoint: mean survival time, dose: 400.0 mg/kg/injection, schedule: Q04DX002 (ip), vehicle: saline 91 % of control

C1CCC(C2CCCC[N-]2)[N-]C1.O=C(O)C1CCC[N-]1.[Cl][Pt] (stereo not given)
inactive: endpoint: median survival time, dose: 10.0 mg/kg/injection, schedule: Q04DX003 (ip), vehicle: saline 103 % of control | endpoint: median survival time, dose: 20.0 mg/kg/injection, schedule: Q04DX003 (ip), vehicle: saline 101 % of control | endpoint: median survival time, dose: 40.0 mg/kg/injection, schedule: Q04DX003 (ip), vehicle: saline 98 % of control | endpoint: median survival time, dose: 80.0 mg/kg/injection, schedule: Q04DX003 (ip), vehicle: saline 98 % of control and 104 % of control | endpoint: median survival time, dose: 160.0 mg/kg/injection, schedule: Q04DX003 (ip), vehicle: saline 104 % of control

O=[N+]([O-])c1ccc(CSc2ncnc3c2ncn3C2OC(COP(=O)(O)O)C(O)C2O)cc1 (stereo not given)
inactive: [10] 100 % of control | [11] 96 % of control | [12] 104 % of control | [13] 105 % of control | [14] 111 % of control

CCCCCCC[CH2][Sn][CH2]CCCCCCC.Nc1ncnc2c1ncn2C1OC(CO)C2[OH+][OH+]C21 (stereo not given)
inactive: endpoint: mean survival time, dose: 12.5 mg/kg/injection, schedule: Q01DX005 (ip), vehicle: other 98 % of control | endpoint: mean survival time, dose: 25.0 mg/kg/injection, schedule: Q01DX005 (ip), vehicle: other 110 % of control

Cc1cc(N(CC(C)Cl)CC(C)Cl)ccc1N=Nc1ccccc1C(=O)O (stereo not given)
inactive: endpoint: mean survival time, dose: 1.56 mg/kg/injection, schedule: Q01DX009 (ip), vehicle: Klucel (hydroxypropylcellulose) (HPC) 104 % of control | endpoint: mean survival time, dose: 3.12 mg/kg/injection, schedule: Q01DX009 (ip), vehicle: Klucel (hydroxypropylcellulose) (HPC) 104 % of control | endpoint: mean survival time, dose: 6.25 mg/kg/injection, schedule: Q01DX009 (ip), vehicle: Klucel (hydroxypropylcellulose) (HPC) 117 % of control and 109 % of control | endpoint: mean survival time, dose: 12.5 mg/kg/injection, schedule: Q01DX009 (ip), vehicle: Klucel (hydroxypropylcellulose) (HPC) 111 % of control

O=C1Nc2ccccc2C1c1ccccc1 (stereo not given)
inactive: [8] 97 % of control | [9] 90 % of control

Cc1ccc(CNc2cccnc2)cc1
inactive: [2] 98 % of control | [4] 93 % of control | [6] 95 % of control

CS/C([S-])=N/N=C\c1ccccn1.CS/C([S-])=N/N=C\c1ccccn1.[Ni+2]
inactive: [2] 97 % of control | [4] 96 % of control | [6] 96 % of control

S=C(Nc1ccccc1)Nc1ccc(NC(=S)Nc2ccccc2)cc1
inactive: [1] 86 % of control | [2] 92 % of control | [4] 92 % of control | [5] 94 % of control | [6] 86 % of control

C/C=C(/C)C(=O)O[C@H]1CC[C@@]2(C)[C@@H]3CC[C@H]4[C@]5(O)C[C@H](O)[C@@]6(O)[C@@H](CN7C[C@@H](C)CC[C@H]7[C@@]6(C)O)[C@]5(O)C[C@@]42O[C@@]13O
inactive: endpoint: mean survival time, dose: 0.5 mg/kg/injection, schedule: Q01DX009 (ip), vehicle: saline with Tween-80 101 % of control | endpoint: mean survival time, dose: 1.0 mg/kg/injection, schedule: Q01DX009 (ip), vehicle: saline with Tween-80 101 % of control | endpoint: mean survival time, dose: 2.0 mg/kg/injection, schedule: Q01DX009 (ip), vehicle: saline with Tween-80 101 % of control

— PubChem BioAssay AID256 (DTP/NCI, 2004)
